Where two headings read alike, the source gives them in different places. Marks after values point to notes of the source that are not given here.
Experiments:
HIV-1BaL = assay: Anti-HIV-1BaL activity (reverse transcriptase activity) in GHOST CCR5 cells; settings: for EC50: read-out: Inhibition of HIV-1BaL EC50, RT activity, triplicate
Description: This assay was run in GHOST-CCR5 cells using the CCR5-tropic viral strain HIV-1BaL.
(§1) 100 μL of GHOST CCR5 cells at a density of 1×10^4 cells/well in 10% complete DMEM (10% FBS with 1% L-glutamine and 1% Penicillin/Streptomycin) media were plated in a 96-well flat bottom plate and incubated for 24 h at 37° C./5% CO2. Following the incubation, 100 μL of each compound at 6 concentrations were added in triplicate to both efficacy and toxicity plates followed by 100 μL of HIV-1BaL at a pre-determined titer to the plates being evaluated for efficacy and 50 μL of complete DMEM to the plates being evaluated for cytotoxicity. The cultures were incubated for 6 days at 37° C./5% CO2. Following the incubation, 50 μL of cell culture supernatant was removed from the wells of the efficacy plates for subsequent evaluation of virus content by reverse transcriptase activity assay. The toxicity plates being evaluated for cytotoxicity were stained with XTT.
RT activity (EC50 values) was measured using standard radioactivity incorporation polymerization assay. 1 μL of titrated thymidine triphosphate (TTP) at 1 Ci/mL was used per enzyme reaction. Poly rA and oligo dT were prepared at concentrations of 0.5 mg/mL and 1.7 Units/mL, respectively, from a stock solution which was kept at −20° C. The RT reaction buffer was prepared fresh and consists of 125 μL of 1M EGTA, 125 μL of dH2O, 125 μL of 20% Triton X-100, 50 μL of 1M Tris (pH 7.4), 50 μL of 1M DTT, and 40 μL of 1 M MgCl2. For each reaction, 1 μL of TTP, 4 μL of dH2O, 2.5 μL of rAdT and 2.5 μL of reaction buffer were mixed. 10 μL of this reaction mixture was placed in a round bottom microtiter plate with 15 μL of virus containing supernatant. The plate was incubated at 37° C. in a humidified incubator for 60-90 min. […] The dried filtermat was placed in a plastic sleeve and 4 mL of Opti-Fluor O (Perkin Elmer, catalog #1205-440) scintillation fluid was added to each sleeve. […] TC50 values for the tested compounds were derived by measuring the reduction of the tetrazolium dye XTT (2,3-bis(2-methoxy-4-nitro-5-sulfophenyl)-5-[(phenylamino)carbonyl]-2H-tetrazolium hydroxide). XTT in metabolically active cells is metabolized by the mitochondrial enzyme NADPH oxidase to a soluble formazan product. XTT solution was prepared as a stock of 1 mg/mL in RPMI-1640 without additives. Phenazine methosulfate (PMS) solution was prepared at 0.15 mg/mL in DPBS and stored in the dark at −20° C. XTT/PMS stock was prepared immediately before use by adding 40 μL of PMS per mL of XTT solution. […] The plates were sealed and inverted several times to mix the soluble formazan product and the plate was read at 450 nm (650 nm reference wavelength) with a Molecular Devices SPECTRAMAX® Plus 384 96 well format spectrophotometer.

GHOST CCR5 cells = settings: GHOST CCR5 cells; XTT; triplicate
Description: These compounds were concurrently assessed for cytotoxicity in GHOST-CCR5-expressing cells using the XTT assay. […] The therapeutic index (TI, TC50/EC50) values were calculated if applicable.
as §1
TC50 values for the tested compounds were derived by measuring the reduction of the tetrazolium dye XTT (2,3-bis(2-methoxy-4-nitro-5-sulfophenyl)-5-[(phenylamino)carbonyl]-2H-tetrazolium hydroxide). XTT in metabolically active cells is metabolized by the mitochondrial enzyme NADPH oxidase to a soluble formazan product. XTT solution was prepared as a stock of 1 mg/mL in RPMI-1640 without additives. Phenazine methosulfate (PMS) solution was prepared at 0.15 mg/mL in DPBS and stored in the dark at −20° C. XTT/PMS stock was prepared immediately before use by adding 40 μL of PMS per mL of XTT solution. 50 μL of XTT/PMS was added to each well of the plate and the plate was incubated for 4 h at 37° C. The plates were sealed and inverted several times to mix the soluble formazan product and the plate was read at 450 nm (650 nm reference wavelength) with a Molecular Devices SPECTRAMAX® Plus 384 96 well format spectrophotometer.

[1] = tested on: HIV-1BaL Env-pseudotyped Luc-expressing virus; assay: HIV-1 infection assay in PHA-stimulated PBMC cells; type: cell-based; settings: PHA-stimulated PBMCs; 10 nM
Description: Peripheral blood mononuclear cells (PBMCs) include large numbers of CCR5-expressing leukocytes and are susceptible to infection by R5-tropic HIV-1 strains.
In a 24-well plate, PHA-stimulated PBMC cells from healthy donors were infected by incubation with the HIV-1BaL.01 env-pseudotyped Luc virus. A concentration of HIV-1 p24 50 pg/106 cells was used, and uninfected cells served as a negative control. […] After approximately 18-20 h, the supernatant was removed and stored at −80° C., cells were rinsed twice with PBS and lysed. The lysate was subsequently tested for the relative Tat protein expression by using a luciferase assay system (Promega). Luciferase activity was measured using a PHERASTAR® FS plate reader (BMG Labtech).

mouse mu opioid receptor [2] = biological target: T1, mouse mu opioid receptor (Mus musculus (Mouse), UniProt P42866); settings: read-out: Inhibition of DAMGO Induced Ca2+ Mobilization IC50; data reported before, shown for comparison; cited from earlier work
T1 sequence (P42866 whole entry, looked up): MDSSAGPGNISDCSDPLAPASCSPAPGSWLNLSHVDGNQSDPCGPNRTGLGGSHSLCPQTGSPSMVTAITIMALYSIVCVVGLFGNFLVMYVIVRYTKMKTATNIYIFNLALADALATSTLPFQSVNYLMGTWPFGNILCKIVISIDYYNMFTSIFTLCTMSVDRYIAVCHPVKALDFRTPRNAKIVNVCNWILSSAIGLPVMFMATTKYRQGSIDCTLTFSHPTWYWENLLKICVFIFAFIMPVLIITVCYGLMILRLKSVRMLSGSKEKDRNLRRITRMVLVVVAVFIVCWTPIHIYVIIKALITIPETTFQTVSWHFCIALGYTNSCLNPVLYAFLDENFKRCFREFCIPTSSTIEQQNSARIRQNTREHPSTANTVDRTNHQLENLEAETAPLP

CCR5 [3] = biological target: T2, CCR5 (Homo sapiens (Human), UniProt P51681); settings: data reported before, shown for comparison; read-out: Inhibition of CCL5-stimulated Intracellular Ca2+ Mobilization IC50; cited from earlier work
T2 sequence (P51681 whole entry): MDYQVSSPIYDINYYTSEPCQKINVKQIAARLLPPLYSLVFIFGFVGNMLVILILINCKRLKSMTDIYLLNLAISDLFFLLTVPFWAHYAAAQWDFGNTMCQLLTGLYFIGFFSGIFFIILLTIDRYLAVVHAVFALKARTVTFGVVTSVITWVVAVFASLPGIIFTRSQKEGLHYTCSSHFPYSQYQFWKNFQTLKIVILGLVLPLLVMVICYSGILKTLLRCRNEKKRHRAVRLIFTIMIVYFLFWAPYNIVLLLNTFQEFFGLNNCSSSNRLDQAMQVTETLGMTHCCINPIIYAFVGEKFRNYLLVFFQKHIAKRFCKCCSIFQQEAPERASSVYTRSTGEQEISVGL

[4] = biological target: T3, Rhesus macaque chemokine CCR5 receptors (Macaca mulatta (Rhesus macaque), UniProt P61813); settings: data reported before; similar assay with minor differences; read-out: CCR5 Radioligand Binding Affinity Ki; cited from earlier work
mouse MOR [5] = biological target: T4, mouse MOR (Mus musculus (Mouse), UniProt P42866); settings: [35S]GTPγS binding; data reported before, shown for comparison; cited from earlier work
T4 sequence (P42866 whole entry, looked up): as the sequence (P42866 whole entry, looked up) above

mouse mu opioid receptor [6] = biological target: T1, mouse mu opioid receptor; assay: Calcium mobilization assay in mMOR-CHO cells; type: cell-based
Description: Calcium mobilization assay results in mMOR-CHO cells. The pharmacological profiles of the three newly prepared MOR bivalent ligands were further characterized for their effects on MOR-dependent intracellular Ca^2+ signaling in an mMOR-CHO cell line that was transfected with chimeric Gqi5 protein as previously described.
A CHO cell line stably expressing the mouse mu opioid receptor (mMOR-CHO) was used for this assay. The cells were transfected with Gαqi5 for 4 h and then plated (10,000 cells/well) to black 96-well plates with clear bottoms (Greiner Bio-One). After 24 h of incubation, the culture medium was removed, and the cells were washed with assay buffer (50 mL of HBSS, 1 mL of HEPES, 250 μL of probenecid, 50 μL of 1 mM CaCl2, and 50 μL of 1 mM MgCl2). The tested compounds were dissolved in DMSO as a stock solution for the assay (1 M). For agonist assays, cells were then incubated with 50 μL/well loading buffer (6 mL of assay buffer, 24 μL of Fluo4-AM solution (Invitrogen), and 12 μL of probenecid solution) for 60 min. Following incubation, different concentrations of the tested compounds were added by a FlexStation3 microplate reader (Molecular Devices) and read at ex494/em516. Each concentration was run in triplicate. For antagonism studies, the cells were incubated with the same loading buffer as the agonist assay for 60 min. Then, different concentrations of the tested compounds (20 μL/well) were manually added to each well followed by another 15 min of incubation. […] Each concentration was run in triplicate. The corresponding IC50 value of each compound was calculated by non-linear regression using GraphPad Prism 8.0.1 (GraphPad Software, San Diego, CA).

mouse MOR [7] = biological target: T4, mouse MOR; assay: [35S]GTPγS functional assay in mMOR-CHO; type: biochemical; settings: [35S]GTPγS binding, mean ± SEM
Description: After incubation, the bound radioactive ligand was separated from the free radioligand by filtration through a GF/B glass fiber filter paper and rinsed three times with ice-cold wash buffer (50 mM Tris-HCl, pH 7.2) using the Brandel harvester.

mouse MOR [8] = biological target: T4, mouse MOR; assay: In vitro MOR radioligand binding assay; settings: [3H]naloxone radioligand; mMOR-CHO; mean ± SEM; read-out: MOR Radioligand Binding Affinity Ki
Description: In vitro MOR radioligand binding studies. All bivalent ligands were first tested for their binding affinity to the MOR. The competitive radioligand binding assay was conducted using monoclonal mouse MOR expressed in CHO cell lines (mMOR-CHO).
In vitro MOR radioligand binding assay The competition binding assay was conducted using monoclonal mouse MOR expressed in Chinese hamster ovary (CHO) cell lines. In this assay, 30 μg of membrane protein was incubated with the radioligand [^3H] naloxone in the presence of different concentrations of tested compounds in TME buffer (50 mM Tris, 3 mM MgCl2, and 0.2 mM EGTA, pH 7.4) for 1.5 h at 30° C. The bound radioligand was separated by filtration using a Brandel harvester. […] The IC50 values were determined and converted to Ki values using the Cheng-Prusoff equation: Ki=IC50/[1+([L*]/KD)], where [L*] is the concentration of the radioligand and KD is the KD of the radioligand was determined.73

CCR5 [9] = biological target: T2, CCR5; assay: Calcium mobilization assay in HOS-CCR5 cells; type: cell-based
Description: We then conducted the calcium mobilization assay to further test both the agonist and antagonist properties of the newly synthesized compounds in the HOS-CCR5 (stably transfected for the expression of CCR5) cells using our reported protocol, as calcium mobilization is associated with the activation of CCR5. Prior to the assay, the HOS-CCR5 cells were transiently transfected with a Gqi5 to boost calcium signaling levels.
In the antagonism assay, these compounds were assessed for their ability to inhibit CCL5-stimulated Ca^2+ mobilization.
HOS-CCR5 cells were transfected with Gqi5 pcDNA16 using Lipofectamine 2000 (Invitrogen) according to the manufacturer's recommended procedure and maintained in RPMI 1640 supplemented with 10% fetal bovine serum, 100 μg/mL penicillin, 100 μg/mL streptomycin, and 1 mg/mL G418 at 37° C. and 5% C02. 48 h after transfection, a total of 2,500,000 cells were spun down and brought back up in 8 mL of 50:1 HBSS: HEPES assay buffer. Cells were then plated at 25,000 cells per well into a clear bottom, black 96-well plate (Greiner Bio-one) and 50 μL of Fluo4 loading buffer [40 μL of 2 μM Fluo4-AM (Invitrogen), 100 μL of 2.5 mM probenecid, in 5 mL of assay buffer] was added to bring the volume up to 130 μL. After incubating for 45 min, 50 μL of varying concentrations of tested compounds were added and the plate was incubated for an additional 15 min. Plates were then read on a FlexStation3 microplate reader (Molecular Devices) at 494/516 ex/em for a total of 120 s. After 16 s of reading, 20 μL of 200 nM CCL5 (Biosource) in assay buffer, or assay buffer alone, was added to the wells to bring the total volume up to 200 μL. The changes in calcium mobilization were monitored and peak height values were obtained using SoftMaxPro software (Molecular Devices). Non-linear regression curves and IC50 values were generated using GraphPad Prism 8.0.1 (GraphPad Software, San Diego, CA). All experiments were repeated at least three times.

[10] = biological target: T3, Rhesus macaque chemokine CCR5 receptors; assay: In vitro CCR5 radioligand binding assay; settings: [125I]MIP-1α radioligand; Chem-1 cells; Cheng-Prusoff; mean ± SEM; read-out: CCR5 Radioligand Binding Affinity Ki
Description: In vitro CCR5 radioligand binding studies. To verify the binding affinity of the bivalent ligands to the CCR5, the competitive radioligand binding assay was conducted in recombinant rhesus macaque CCR5-expressing Chem-1 cells, and macrophage inflammatory protein 1 beta (MIP-1β) was used as a control.
The CCR5 competitive radioligand binding assay was conducted following previously reported studies.74, 75 Rhesus macaque chemokine CCR5 receptors expressed in Chem-1 cells are assayed in modified HEPES buffer (50 mM HEPES, 1 mM CaCl2, 5 mM MgCl2, 0.2% BSA, pH 7.4). 3 μg of membrane protein was incubated with 0.10 nM [^125I]MIP-1α in the presence of six concentrations of tested compounds (10 μM, 1 μM, 0.1 μM, 10 nM, 1 nM, and 0.1 nM) for 90 min at 25° C. Non-specific binding is estimated in the presence of 0.1 μM MIP-1β.

Cc1nnc(C(C)C)n1C1C[C@H]2CC[C@@H](C1)N2CC[C@H](NC(=O)C1CCC(F)(F)CC1)c1ccccc1 (stereo in doubt) [Maraviroc]
TI (TC50/EC50) (HIV-1BaL): >28
EC50 (HIV-1BaL): 18 ± 2 nM
Cytotoxicity TC50 (GHOST CCR5 cells): >500 nM

C[C@@H](NC(=O)[C@@H](N)Cc1ccc(O)cc1)C(=O)NCC(=O)N(C)[C@@H](Cc1ccccc1)C(=O)NCCO [DAMGO, [D-Ala2-MePhe4-Gly(ol)5]enkephalin, reference compound]
effect of opioid exposure on HIV expression [1]: remarkable increases in HIV expression

Cc1nnc(C(C)C)n1C1CC2CCC(C1)N2CC[C@H](NC(=O)C1CCC(F)(F)CC1)c1ccc(NC(=O)COCC(=O)NCCCCCCCNC(=O)COCC(=O)N[C@@H]2CC[C@@]3(O)[C@H]4Cc5ccc(O)c6c5[C@@]3(CCN4CC3CC3)[C@H]2O6)cc1 (stereo partly drawn) [VZMC001]
EC50 (HIV-1BaL): > 100000 nM
IC50 (mouse mu opioid receptor [2]): 40 nM
IC50 (CCR5 [3]): 126 nM
Ki [4]: 239 ± 56 nM
% Emax of DAMGO (mouse MOR [5]): 11.7 ± 1.2^b %
Cytotoxicity TC50 (GHOST CCR5 cells): >100000 nM

CNC(=O)COCC(=O)NCCCNC(=O)COCC(=O)N[C@@H]1CC[C@@]2(O)[C@H]3Cc4ccc(O)c5c4[C@@]2(CCN3CC2CC2)[C@H]1O5 [VZMC002]
Cytotoxicity TC50 (GHOST CCR5 cells): >100000 nM

CC(C)c1nnc(CCNC(=O)COCC(=O)NCCCCCCCCCNC(=O)COCC(=O)NC2CC[C@@]3(O)[C@H]4Cc5ccc(O)c6c5[C@@]3(CCN4CC3CC3)[C@H]2O6)n1C1CC2CCC(C1)N2CC[C@H](NC(=O)C1CCC(F)(F)CC1)c1ccccc1 (stereo partly drawn) [VZMC017]
IC50 (mouse mu opioid receptor [6]): 74.4 nM
% Emax of DAMGO (mouse MOR [7]): 4.27 ± 0.66^a %
Ki (mouse MOR [8]): 11.2 nM
IC50 (CCR5 [9]): 965 ± 30.5 nM
Ki [10]: 5.7 ± 0.23 nM

CCL5: C—C motif chemokine ligand 5, control CCR5 agonist
EC50 (CCR5 [9]; agonist mode, HOS-CCR5 transfected with Gqi5, read-out: CCR5 Ca2+ mobilization agonism EC50): 155 ± 6.58 nM

B1: MIP-1β: macrophage inflammatory protein 1 beta, used as a control (protein, UniProt P13236 24-92, looked up)
C-C motif chemokine 4: APMGSDPPTACCFSYTARKLPRNFVVDYYETSSLCSQPAVVFQTKRSKQVCADPSESWVQEYVYDLELN
Ki [10]: 0.056 ± 0.006 nM

— patent US20240208984A1, “BIVALENT LIGANDS TO UNDERSTAND DIMERIZATION OF THE MU OPIOID RECEPTOR AND THE CHEMOKINE RECEPTOR CCR5 IN NEUROLOGICAL DISORDERS” (priority 2021, published 2024)
